PubChem BioAssay AID1963983 (Molecular Pharmacology Branch, DTP, NCI, 2024)

Test system: 186277-243-T-J2-PDC multi-cell spheroid viability
Assay: Anticancer human tumor 186277-243-T-J2-PDC patient-derived colon adenocarcinoma cell line growth inhibition [PI3K]
Conditions: for IC50: curve of first compound; for viability, T/C: stronger effect = lower value; active = viability on the fitted dose curve at most 10% of control; inactive = the rest
Excerpt: Combinatorial screen of targeted agents with the PI3K inhibitors inavolisib, alpelisib, duvelisib, and copanlisib in multi-cell type tumor spheroids
A high-throughput screen of multi-cell type tumor spheroids was designed to identify active combinations of targeted small molecules and PI3K pathway inhibitors. Complex spheroids include a stromal component modeled by human endothelial cells (HUVEC) and fibroblasts modeled by human mesenchymal stem cells (MSCs). The concentration ranges selected for each drug and investigational agent were based upon clinically achievable concentrations if the clinical Cmax of the agent was known.
Compounds. The drugs and investigational agents: inavolisib (NSC800729), alpelisib (NSC765974), duvelisib (NSC772469), copanlisib (NSC816437), ipatasertib (NSC767898), afuresertib (NSC778305), talazoparib (NSC767125), sapanisertib (NSC764658), selumetinib (NSC741078), tovorafenib (DAY101, NSC766906), vemurafenib (NSC761431), ravoxertinib (NSC781343), sotorasib (NSC818433), MRTX1133 (NSC 836407), abemaciclib (NSC 768073), palbociclib (NSC758247), venetoclax (NSC 766270), SY5609 (NSC837396), enzalutamide (NSC755605), and darolutamide (NSC825331), were obtained from the National Cancer Institute (NCI) Developmental Therapeutics Program Chemical Repository. The FDA-approved anticancer drug set is available from the NCI Developmental Therapeutics Program. […] The stock solutions were prepared in dimethyl sulfoxide (DMSO, Sigma-Aldrich, St. Louis, MO, cat. D2650) at 800-fold the tested concentration and stored at -70 degrees C prior to their use. All drugs and investigational agents were tested over a range starting from a high concentration at or near the clinical Cmax and decreasing in half-log increments. If the clinical Cmax for an agent had not been determined, the highest concentration tested was 10 microM.
Cell Culture. All cells were maintained in an incubator at 37 degrees C and 5% CO2 with 95% humidity. The PDC lines were cultured according to standard operating procedures established by the NCI PDMR (https://pdmr.cancer.gov/sops/default.htm). All PDCs were thawed and cultured in Matrigel-coated flasks prepared with a working solution of 1X Ham's F-12 nutrient mix, without supplementation (Invitrogen, Waltham, MA, cat. 11765054), 100 U/mL penicillin-streptomycin (Invitrogen, cat. 15140122), and 2.5% Matrigel (Corning Inc., Corning, NY, cat. 354248) for the first three passages. The 354836-022-R-J1-PDC, 475296-252-R-J1-PDC, and 997726-040-R-J2-PDC lines were cultured in 6A media, which includes advanced DMEM/F-12 (Thermo Fisher Scientific, cat. 12634028), 10 mM HEPES (Thermo Fisher Scientific, cat. 15630080), 1X GlutaMAX supplement (Thermo Fisher Scientific, cat. 35050061), 0.1 mg/mL primocin (InvivoGen, San Diego, CA, cat. ant-pm-2), 10% defined fetal bovine serum, heat inactivated (HyClone Laboratories Inc., Logan, UT, cat. SH30070.03HI), 50% L-WRN conditioned media (ATCC, cat. CRL-3276), 1.25 mM N-Acetyl-L-cysteine (Sigma-Aldrich, cat. A9165), 10 mM nicotinamide (Sigma-Aldrich, cat. N0636), 1X B-27 supplement (Thermo Fisher Scientific, cat. 17504044), 1X N-2 supplement (Thermo Fisher Scientific, cat. 17502048), and 10 microM Y-27632 dihydrochloride (Tocris Bioscience, Bristol, United Kingdom, cat. 1254). The 624824-186-R-J2-PDC line was cultured in 6C/Colon 1B media, which includes all 6A media components plus 50 ng/mL human EGF recombinant protein (Thermo Fisher Scientific, cat. PHG0311). […]

[1] = second compound 0.00316 µM, first compound 0.0316 µM
[2] = second compound 0.00316 µM, first compound 0.1 µM
[3] = second compound 0.00316 µM, first compound 0.316 µM
[4] = second compound 0.00316 µM, first compound 1 µM
[5] = second compound 0.00316 µM, first compound 3.16 µM
[6] = second compound 0.00316 µM, first compound 10 µM
[7] = second compound 0.01 µM, first compound 0.0316 µM
[8] = second compound 0.01 µM, first compound 0.1 µM
[9] = second compound 0.01 µM, first compound 0.316 µM
[10] = second compound 0.01 µM, first compound 1 µM
[11] = second compound 0.01 µM, first compound 3.16 µM
[12] = second compound 0.01 µM, first compound 10 µM
[13] = second compound 0.0316 µM, first compound 0.0316 µM
[14] = second compound 0.0316 µM, first compound 0.1 µM
[15] = second compound 0.0316 µM, first compound 0.316 µM
[16] = second compound 0.0316 µM, first compound 1 µM
[17] = second compound 0.0316 µM, first compound 3.16 µM
[18] = second compound 0.0316 µM, first compound 10 µM
[19] = second compound 0.1 µM, first compound 0.0316 µM
[20] = second compound 0.1 µM, first compound 0.1 µM
[21] = second compound 0.1 µM, first compound 0.316 µM
[22] = second compound 0.1 µM, first compound 1 µM
[23] = second compound 0.1 µM, first compound 3.16 µM
[24] = second compound 0.1 µM, first compound 10 µM
[25] = second compound 0.316 µM, first compound 0.0316 µM
[26] = second compound 0.316 µM, first compound 0.1 µM
[27] = second compound 0.316 µM, first compound 0.316 µM
[28] = second compound 0.316 µM, first compound 1 µM
[29] = second compound 0.316 µM, first compound 3.16 µM
[30] = second compound 0.316 µM, first compound 10 µM
[31] = second compound 1 µM, first compound 0.0316 µM
[32] = second compound 1 µM, first compound 0.1 µM
[33] = second compound 1 µM, first compound 0.316 µM
[34] = second compound 1 µM, first compound 1 µM
[35] = second compound 1 µM, first compound 3.16 µM
[36] = second compound 1 µM, first compound 10 µM
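Also: spheroids exposed to compounds for seven days before viability reading.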

CC1(C)CCC(CN2CCN(c3ccc(C(=O)NS(=O)(=O)c4ccc(NCC5CCOCC5)c([N+](=O)[O-])c4)c(Oc4cnc5[nH]ccc5c4)c3)CC2)=C(c2ccc(Cl)cc2)C1 + CC(Nc1ccc2c(c1)OCCn1cc(N3C(=O)OCC3C(F)F)nc1-2)C(N)=O
4.36 µM: IC50 (second compound 0.0316 µM)
active: viability, T/C [6] 5.92% | viability, T/C [12] 3.55% | viability, T/C [18] 2.8% | viability, T/C [24] 2.37% | viability, T/C [30] 0.63% | viability, T/C [36] 0.99%
inactive: viability, T/C [1] 97.8% | viability, T/C [2] 99.7% | viability, T/C [3] 95.3% | viability, T/C [4] 91.9% | viability, T/C [5] 71.2% | viability, T/C [7] 107% | viability, T/C [8] 94.3% | viability, T/C [9] 95.1% | viability, T/C [10] 95.3% | viability, T/C [11] 71.1% | viability, T/C [13] 106% | viability, T/C [14] 108% | viability, T/C [15] 99.4% | viability, T/C [16] 89.4% | viability, T/C [17] 71% | viability, T/C [19] 98.6% | viability, T/C [20] 99.9% | viability, T/C [21] 87.5% | viability, T/C [22] 78.3% | viability, T/C [23] 60.3% | viability, T/C [25] 86.1% | viability, T/C [26] 83.3% | viability, T/C [27] 67.5% | viability, T/C [28] 71.1% | viability, T/C [29] 56.2% | viability, T/C [31] 47.5% | viability, T/C [32] 44.8% | viability, T/C [33] 46.3% | viability, T/C [34] 46.1% | viability, T/C [35] 34.4%
3.38 µM: IC50 (second compound 0.316 µM)
4.58 µM: IC50 (second compound 0.00316 µM)
< 0.0316 µM: IC50 (second compound 1 µM)
4.54 µM: IC50 (second compound 0.01 µM)
3.65 µM: IC50 (second compound 0.1 µM)

C[C@@H](NC(=O)c1ncnc(N)c1Cl)c1ncc(C(=O)Nc2cc(C(F)(F)F)c(Cl)cn2)s1 + CC(Nc1ccc2c(c1)OCCn1cc(N3C(=O)OCC3C(F)F)nc1-2)C(N)=O
1.85 µM: IC50 (second compound 0.316 µM)
inactive: viability, T/C [1] 83.2% | viability, T/C [2] 87.1% | viability, T/C [3] 93% | viability, T/C [4] 99.1% | viability, T/C [5] 113% | viability, T/C [6] 75.8% | viability, T/C [7] 103% | viability, T/C [8] 101% | viability, T/C [9] 96.2% | viability, T/C [10] 102% | viability, T/C [11] 108% | viability, T/C [12] 72.4% | viability, T/C [13] 98.6% | viability, T/C [14] 107% | viability, T/C [15] 101% | viability, T/C [16] 104% | viability, T/C [17] 93.7% | viability, T/C [18] 56.1% | viability, T/C [19] 97.4% | viability, T/C [20] 105% | viability, T/C [21] 96.4% | viability, T/C [22] 108% | viability, T/C [23] 72.8% | viability, T/C [24] 31.1% | viability, T/C [25] 85.9% | viability, T/C [26] 92.4% | viability, T/C [27] 87.3% | viability, T/C [28] 67.5% | viability, T/C [29] 34.4% | viability, T/C [30] 12.8% | viability, T/C [31] 56.2% | viability, T/C [32] 54.4% | viability, T/C [33] 51.4% | viability, T/C [34] 35.8% | viability, T/C [35] 13.7%
5.93 µM: IC50 (second compound 0.1 µM)
> 10 µM: IC50 (second compound 0.00316 µM) | IC50 (second compound 0.01 µM) | IC50 (second compound 0.0316 µM)
0.344 µM: IC50 (second compound 1 µM)
active: viability, T/C [36] 4.09%

Cn1ncnc1[C@H]1c2n[nH]c(=O)c3cc(F)cc(c23)N[C@@H]1c1ccc(F)cc1 + CC(Nc1ccc2c(c1)OCCn1cc(N3C(=O)OCC3C(F)F)nc1-2)C(N)=O
0.0468 µM: IC50 (second compound 0.316 µM)
inactive: viability, T/C (second compound 0.00316 µM, first compound 0.000316 µM) 93.7% | viability, T/C (second compound 0.00316 µM, first compound 0.001 µM) 85.8% | viability, T/C (second compound 0.00316 µM, first compound 0.00316 µM) 105% | viability, T/C (second compound 0.00316 µM, first compound 0.01 µM) 91% | viability, T/C [1] 101% | viability, T/C [2] 94.9% | viability, T/C (second compound 0.01 µM, first compound 0.000316 µM) 101% | viability, T/C (second compound 0.01 µM, first compound 0.001 µM) 102% | viability, T/C (second compound 0.01 µM, first compound 0.00316 µM) 104% | viability, T/C (second compound 0.01 µM, first compound 0.01 µM) 102% | viability, T/C [7] 102% | viability, T/C [8] 98.6% | viability, T/C (second compound 0.0316 µM, first compound 0.000316 µM) 117% | viability, T/C (second compound 0.0316 µM, first compound 0.001 µM) 107% | viability, T/C (second compound 0.0316 µM, first compound 0.00316 µM) 101% | viability, T/C (second compound 0.0316 µM, first compound 0.01 µM) 97.9% | viability, T/C [13] 101% | viability, T/C [14] 89% | viability, T/C (second compound 0.1 µM, first compound 0.000316 µM) 102% | viability, T/C (second compound 0.1 µM, first compound 0.001 µM) 105% | viability, T/C (second compound 0.1 µM, first compound 0.00316 µM) 112% | viability, T/C (second compound 0.1 µM, first compound 0.01 µM) 99.5% | viability, T/C [19] 93.5% | viability, T/C [20] 69.4% | viability, T/C (second compound 0.316 µM, first compound 0.000316 µM) 80.6% | viability, T/C (second compound 0.316 µM, first compound 0.001 µM) 84.4% | viability, T/C (second compound 0.316 µM, first compound 0.00316 µM) 65% | viability, T/C (second compound 0.316 µM, first compound 0.01 µM) 64.8% | viability, T/C [25] 53.7% | viability, T/C [26] 43.3% | viability, T/C (second compound 1 µM, first compound 0.000316 µM) 52.2% | viability, T/C (second compound 1 µM, first compound 0.001 µM) 46.6% | viability, T/C (second compound 1 µM, first compound 0.00316 µM) 46.9% | viability, T/C (second compound 1 µM, first compound 0.01 µM) 39.4% | viability, T/C [31] 31.9% | viability, T/C [32] 26.6%
0.000592 µM: IC50 (second compound 1 µM)
> 0.1 µM: IC50 (second compound 0.00316 µM) | IC50 (second compound 0.01 µM) | IC50 (second compound 0.0316 µM) | IC50 (second compound 0.1 µM)
